Results taken from patent US7569578B2, “Heterocyclic anti-migraine agents” (Bristol-Meyers Squibb Company, priority 2003, dated 2009).

Molecular target: T1, Human CGRP1 Receptor (Homo sapiens, UniProt O60894+Q16602)
T1 construct: endogenous in cells; host or cells: SK-N-MC cells (membrane homogenate)
Test: CGRP Binding Assay ([125I]-CGRP radioligand displacement, SK-N-MC membrane homogenate)
Conditions: [125I]-CGRP displacement, SK-N-MC homogenate, room temperature 2 h; read-out: Human CGRP1 Receptor IC50

T1 sequence (Q16602 23-461): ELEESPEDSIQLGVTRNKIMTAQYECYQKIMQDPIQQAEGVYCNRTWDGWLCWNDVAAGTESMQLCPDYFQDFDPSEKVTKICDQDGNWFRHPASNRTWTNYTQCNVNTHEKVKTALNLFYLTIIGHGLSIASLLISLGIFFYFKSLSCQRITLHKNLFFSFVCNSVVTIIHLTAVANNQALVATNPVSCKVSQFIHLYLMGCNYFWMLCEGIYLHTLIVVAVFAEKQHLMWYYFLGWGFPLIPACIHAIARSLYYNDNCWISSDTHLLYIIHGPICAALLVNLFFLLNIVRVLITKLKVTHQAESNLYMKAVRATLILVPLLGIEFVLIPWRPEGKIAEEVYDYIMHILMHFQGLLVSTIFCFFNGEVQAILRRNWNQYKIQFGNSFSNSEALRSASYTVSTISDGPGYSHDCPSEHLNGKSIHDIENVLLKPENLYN
T1 sequence (O60894 27-148): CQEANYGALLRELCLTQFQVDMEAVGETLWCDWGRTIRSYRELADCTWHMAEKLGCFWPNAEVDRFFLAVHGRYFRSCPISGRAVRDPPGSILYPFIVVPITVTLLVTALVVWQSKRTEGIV

Row | IC50 [nM] | Compound
1 | < 10 | Cc1cc(CC(OC(=O)N2CCC(N3Cc4ccccc4NC3=O)CC2)c2ccccn2)cc2cn[nH]c12 (stereo not shown) [Example 54, 2-(7-methyl-1H-indazol-5-yl)-1-(pyridin-2-yl)ethyl 4-(2-oxo-1,2-dihydroquinazolin-3(4H)-yl)piperidine-1-carboxylate]
2 | 100 to 1000 | Cc1cc(CC(OC(=O)N2CCC(N3Cc4ccccc4NC3=O)CC2)c2cccc(=O)[nH]2)cc2cn[nH]c12 (racemic) [Example 42, (±)-2-(7-Methyl-1H-indazol-5-yl)-1-(6-oxo-1,6-dihydropyridin-2-yl)ethyl 4-(2-oxo-1,2-dihydroquinazolin-3(4H)-yl)piperidine-1-carboxylate]
3 | 10 to 100 | Cc1cc(CC(OC(=O)N2CCC(N3Cc4ccccc4NC3=O)CC2)c2cc(C(=O)O)ccn2)cc2cn[nH]c12 (racemic) [Example 48, (±)-2-(2-(7-Methyl-H-indazol-5-yl)-1-(4-(2-oxo-1,2-dihydroquinazolin-3(4H)-yl)piperidine-1-carbonyloxy)ethyl)isonicotinic acid]
4 | < 10 | Cc1cc(CC(NC(=O)N2CCC(N3Cc4ccccc4NC3=O)CC2)c2nc(Br)c(Br)[nH]2)cc2cn[nH]c12 (racemic) [Example 87, (±)-N-(1-(4,5-Dibromo-1H-imidazol-2-yl)-2-(7-methyl-1H-indazol-5-yl)ethyl)-4-(2-oxo-1,2-dihydroquinazolin-3(4H)-yl)piperidine-1-carboxamide]
5 | < 10 | Cc1cc(CC(NC(=O)N2CCC(N3Cc4ccccc4NC3=O)CC2)c2nccn2Cc2ccc(C(C)(C)C)cc2)cc2cn[nH]c12 (racemic) [Example 75, (±)-N-(1-(1-(4-tert-Butylbenzyl)-1H-imidazol-2-yl)-2-(7-methyl-1H-indazol-5-yl)ethyl)-4-(2-oxo-1,2-dihydroquinazolin-3(4H)-yl)piperidine-1-carboxamide]
6 | < 10 | Cc1cc(CC(NC(=O)N2CCC(N3Cc4ccccc4NC3=O)CC2)c2nnnn2CC(C)(C)C)cc2cn[nH]c12 (racemic) [Example 84, (±)-N-(2-(7-Methyl-1H-indazol-5-yl)-1-(1-neopentyl-1H-tetrazol-5-yl)ethyl)-4-(2-oxo-1,2-dihydroquinazolin-3(4H)-yl)piperidine-1-carboxamide]
7 | < 10 | Cc1cc(CC(NC(=O)N2CCC(N3Cc4ccccc4NC3=O)CC2)c2cc3ccccc3cn2)cc2cn[nH]c12 (stereo not shown) [Example 50, N-(1-(isoquinolin-3-yl)-2-(7-methyl-1H-indazol-5-yl)ethyl)-4-(2-oxo-1,2-dihydroquinazolin-3(4H)-yl)piperidine-1-carboxamide]
8 | < 10 | Cc1cc(CC(NC(=O)N2CCC(N3Cc4ccccc4NC3=O)CC2)c2nccn2Cc2ccncc2)cc2cn[nH]c12 (racemic) [Example 73, (±)-N-(2-(7-Methyl-1H-indazol-5-yl)-1-(1-(pyridin-4-ylmethyl)-1H-imidazol-2-yl)ethyl)-4-(2-oxo-1,2-dihydroquinazolin-3(4H)-yl)piperidine-1-carboxamide]
9 | < 10 | Cc1cc(CC(NC(=O)N2CCC(N3Cc4ccccc4NC3=O)CC2)c2cccc(Br)n2)cc2cn[nH]c12 (racemic) [Example 30, (±)-N-(1-(6-Bromopyridin-2-yl)-2-(7-methyl-1H-indazol-5-yl)ethyl)-4-(2-oxo-1,2-dihydroquinazolin-3(4H)-yl)piperidine-1-carboxamide]
10 | < 10 | Cc1cc(CC(NC(=O)N2CCC(N3Cc4ccccc4NC3=O)CC2)c2ncc(Br)[nH]2)cc2cn[nH]c12 (racemic) [Example 86, (±)-N-(1-(4-Bromo-1H-imidazol-2-yl)-2-(7-methyl-1H-indazol-5-yl)ethyl)-4-(2-oxo-1,2-dihydroquinazolin-3(4H)-yl)piperidine-1-carboxamide]
11 | < 10 | CC1=CC(CC(CC(=O)N2CCC(N3Cc4ccccc4NC3=O)CC2)c2nccn2Cc2ccncc2)=CC2C=NNC12 (stereo not shown) [Example 97, 3-(1-(4-(7-Methyl-3a,7a-dihydro-1H-indazol-5-yl)-3-(1-(pyridin-4-ylmethyl)-1H-imidazol-2-yl)butanoyl)piperidin-4-yl)-3,4-dihydroquinazolin-2(1H)-one]
12 | < 10 | Cc1cc(CC(OC(=O)N2CCC(N3Cc4ccccc4NC3=O)CC2)c2cc3ccccc3cn2)cc2cn[nH]c12 (stereo not shown) [Example 53, 1-(Isoquinolin-3-yl)-2-(7-methyl-1H-indazol-5-yl)ethyl 4-(2-oxo-1,2-dihydroquinazolin-3(4H)-yl)piperidine-1-carboxylate]
13 | < 10 | CC1=CC(CC(CC(=O)N2CCC(N3Cc4ccccc4NC3=O)CC2)c2nccn2Cc2ccc(C(C)(C)C)cc2)=CC2C=NNC12 (stereo not shown) [Example 95, 3-(1-(3-(1-(4-tert-Butylbenzyl)-1H-imidazol-2-yl)-4-(7-methyl-3a,7a-dihydro-1H-indazol-5-yl)butanoyl)piperidin-4-yl)-3,4-dihydroquinazolin-2(1H)-one]
14 | 10 to 100 | CCc1cc(CC(NC(=O)N2CCC(N3Cc4ccccc4NC3=O)CC2)c2nnn(CCc3ccccc3)n2)cc2c(C)n[nH]c12 (racemic) [Example 16, (±)-4-(2-Oxo-1,4-dihydro-2H-quinazolin-3-yl)-piperidine-1-carboxylic acid [2-(7-ethyl-3-methyl-1H-indazol-5-yl)-1-(2-phenethyl-2H-tetrazol-5-yl)-ethyl]-amide]
15 | 10 to 100 | Cc1cc(CC(OC(=O)N2CCC(N3Cc4ccccc4NC3=O)CC2)c2ccco2)cc2cn[nH]c12 (stereo not shown) [Example 56, 1-(Furan-2-yl)-2-(7-methyl-1H-indazol-5-yl)ethyl 4-(2-oxo-1,2-dihydroquinazolin-3(4H)-yl)piperidine-1-carboxylate]
16 | < 10 | Cc1cc(CC(NC(=O)N2CCC(N3Cc4ccccc4NC3=O)CC2)c2nccn2CCc2ccccc2)cc2cn[nH]c12 (racemic) [Example 70, (±)-N-(2-(7-Methyl-1H-indazol-5-yl)-1-(1-phenethyl-1H-imidazol-2-yl)ethyl)-4-(2-oxo-1,2-dihydroquinazolin-3(4H)-yl)piperidine-1-carboxamide]
17 | 100 to 1000 | Cc1cc(CC(NC(=O)N2CCC(N3Cc4ccccc4NC3=O)CC2)c2nc(CN(C)C)no2)cc2cn[nH]c12 (racemic) [Example 13, (±)-4-(2-Oxo-1,4-dihydro-2H-quinazolin-3-yl)-piperidine-1-carboxylic acid [1-(3-dimethylaminomethyl-[1,2,4]oxadiazol-5-yl)-2-(7-methyl-1H-indazol-5-yl)-ethyl]-amide]
18 | < 10 | Cc1cc(Cn2ccnc2C(Cc2cc(C)c3[nH]ncc3c2)NC(=O)N2CCC(N3Cc4ccccc4NC3=O)CC2)cc(Cl)n1 (racemic) [Example 93, (±)-N-(1-(1-((2-Chloro-6-methylpyridin-4-yl)methyl)-1H-imidazol-2-yl)-2-(7-methyl-1H-indazol-5-yl)ethyl)-4-(2-oxo-1,2-dihydroquinazolin-3(4H)-yl)piperidine-1-carboxamide]
19 | 100 to 1000 | CCc1cc(CC(NC(=O)N2CCC(N3Cc4ccccc4NC3=O)CC2)c2nnn[nH]2)cc2c(C)n[nH]c12 (racemic) [Example 14, (±)-4-(2-Oxo-1,4-dihydro-2H-quinazolin-3-yl)-piperidine-1-carboxylic acid [2-(7-ethyl-3-methyl-1H-indazol-5-yl)-1-(1H-tetrazol-5-yl)-ethyl]-amide]
